Data from ChEMBL document CHEMBL1136677, “Dermorphin tetrapeptide analogues with 2',6'-dimethylphenylalanine (Dmp) substituted for aromatic amino acids have high mu opioid receptor binding and biological activities” (Bioorg Med Chem Lett, 2003).

Assays:
[1] = target: Delta-type opioid receptor (Mus musculus) (UniProt P32300); conditions: Vas deferens
Description: Affinity towards delta opioid receptor using N,N(Me)2Dmt-Tic-OH as antagonist in mouse vas deferens

[2] = target: Delta-type opioid receptor (Mus musculus) (UniProt P32300); conditions: Vas deferens; remark: listed apart in the source
Description: Affinity towards delta opioid receptor using CTAP as antagonist in mouse vas deferens

[3] = target: Delta-type opioid receptor (Rattus norvegicus) (UniProt P33533); assay: (§1) Selectivity ratio of binding affinity of delta opioid receptor to mu opioid receptor
Sequence of Delta-type opioid receptor (Rattus norvegicus) (P33533 whole entry): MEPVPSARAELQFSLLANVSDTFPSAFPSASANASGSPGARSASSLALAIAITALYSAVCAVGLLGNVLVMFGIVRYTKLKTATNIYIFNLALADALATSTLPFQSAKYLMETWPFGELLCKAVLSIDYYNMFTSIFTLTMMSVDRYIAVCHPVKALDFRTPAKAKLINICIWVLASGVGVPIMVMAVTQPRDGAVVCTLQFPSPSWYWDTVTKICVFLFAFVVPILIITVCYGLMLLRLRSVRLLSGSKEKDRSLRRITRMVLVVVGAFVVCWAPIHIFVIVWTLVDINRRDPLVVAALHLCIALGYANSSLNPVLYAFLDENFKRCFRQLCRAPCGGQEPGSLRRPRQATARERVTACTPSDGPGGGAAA

[4] = target: Delta-type opioid receptor (Mus musculus) (UniProt P32300); assay: Selectivity ratio of IC50(MVD) to IC50(GPI) was determined
[5] = target: Delta-type opioid receptor (Mus musculus, UniProt P32300); assay: Ability to inhibit electrically induced contractions of mouse vas deferens having delta opioid receptors tested in vitro; format: tissue-based
Sequence of Delta-type opioid receptor (Mus musculus, UniProt P32300) (P32300 whole entry): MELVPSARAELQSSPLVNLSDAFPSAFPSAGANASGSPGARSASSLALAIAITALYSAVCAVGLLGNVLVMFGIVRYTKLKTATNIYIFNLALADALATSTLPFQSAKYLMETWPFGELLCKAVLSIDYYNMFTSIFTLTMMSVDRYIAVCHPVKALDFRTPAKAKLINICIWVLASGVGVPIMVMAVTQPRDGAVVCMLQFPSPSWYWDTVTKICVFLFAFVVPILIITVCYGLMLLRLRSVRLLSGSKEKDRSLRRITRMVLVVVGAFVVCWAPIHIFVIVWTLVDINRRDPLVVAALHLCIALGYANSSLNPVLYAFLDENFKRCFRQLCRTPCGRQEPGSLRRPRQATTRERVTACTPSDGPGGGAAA

[6] = target: Mu-type opioid receptor (Cavia porcellus, UniProt P97266); assay: Ability to inhibit electrically induced contractions of guinea pig ileum having mu opioid receptors tested in vitro; format: tissue-based
Sequence of Mu-type opioid receptor (Cavia porcellus, UniProt P97266) (P97266 whole entry): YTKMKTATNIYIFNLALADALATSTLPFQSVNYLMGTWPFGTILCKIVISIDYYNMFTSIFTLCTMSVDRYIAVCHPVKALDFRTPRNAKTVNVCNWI

[7] = target: Delta-type opioid receptor (Rattus norvegicus, UniProt P33533); assay: Ability to displace [3H]-deltorphin II from delta opioid receptor
Sequence of Delta-type opioid receptor (Rattus norvegicus, UniProt P33533) (P33533 whole entry): as the sequence (P33533 whole entry) above

[8] = target: Prothrombin (Homo sapiens) (UniProt P00734); assay: as §1
[9] = target: Mu-type opioid receptor (Cavia porcellus) (UniProt P97266); assay: Affinity towards mu opioid receptor using CTAP as antagonist in guinea pig ileum; format: functional, tissue-based
Sequence of Mu-type opioid receptor (Cavia porcellus) (P97266 whole entry): as the sequence (P97266 whole entry) above

[10] = system: Mus musculus; assay: Antinociceptive activity in mice after subcutaneous injection in the first phase of formalin test; format: functional; conditions: sc
[11] = system: Mus musculus; assay: Antinociceptive activity in mice after subcutaneous injection in the second phase of formalin test; format: functional; conditions: sc
[12] = target: Mu-type opioid receptor (Rattus norvegicus, UniProt P33535); assay: Ability to displace [3H]DAMGO from mu opioid receptor
Sequence of Mu-type opioid receptor (Rattus norvegicus, UniProt P33535) (P33535 whole entry): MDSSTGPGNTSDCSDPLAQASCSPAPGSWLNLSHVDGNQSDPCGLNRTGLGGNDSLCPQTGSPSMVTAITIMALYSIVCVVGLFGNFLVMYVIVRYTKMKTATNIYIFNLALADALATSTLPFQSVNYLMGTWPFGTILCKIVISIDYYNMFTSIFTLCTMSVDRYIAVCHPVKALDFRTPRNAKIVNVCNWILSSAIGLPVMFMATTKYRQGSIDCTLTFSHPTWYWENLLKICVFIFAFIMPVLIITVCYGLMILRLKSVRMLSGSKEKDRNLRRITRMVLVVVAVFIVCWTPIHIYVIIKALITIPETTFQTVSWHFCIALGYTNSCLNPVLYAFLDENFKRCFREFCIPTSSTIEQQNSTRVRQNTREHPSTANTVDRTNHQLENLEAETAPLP

Sequence of Delta-type opioid receptor (Mus musculus) (P32300 whole entry): as the sequence (P32300 whole entry) above

| SMILES | Ke [1] [nM] | Ke [2] [nM] | Ratio [3] | Ratio [4] | IC50 [5] [nM] | IC50 [6] [nM] | Ki [7] [nM] | Ratio [8] | Ke [9] [nM] | ED50 [10] [µmol/kg] | ED50 [11] [µmol/kg] | Ki [12] [nM] |
| --- | --- | --- | --- | --- | --- | --- | --- | --- | --- | --- | --- | --- |
| CC(C)[C@H](NC(=O)[C@H](CCC(=O)O)NC(=O)[C@H](Cc1ccccc1)NC(=O)[C@H](C)NC(=O)[C@@H](N)Cc1ccc(O)cc1)C(=O)N[C@H](C(=O)NCC(=O)O)C(C)C | 0.64 | > 1000 | – | – | – | – | – | – | – | – | – | – |
| Cc1cccc(C)c1C[C@@H](N)C(=O)N[C@H](CCCN=C(N)N)C(=O)N[C@@H](Cc1ccccc1)C(=O)NCCC(N)=O | – | – | > 370 | 4.6 | – | – | – | – | – | – | – | – |
| Cc1cccc(C)c1C[C@H](NC(=O)[C@@H](CCCN=C(N)N)NC(=O)[C@@H](N)Cc1ccc(O)cc1)C(=O)NCCC(N)=O | > 1000 | 11.4 | – | 16.7 | 27.9 | 1.67 | 544 | 15500 | 22.7 | 0.0986 | 0.113 | 0.035 |
| Cc1cc(O)cc(C)c1C[C@H](N)C(=O)N[C@H](CCCN=C(N)N)C(=O)N[C@@H](Cc1ccccc1)C(=O)NCCC(N)=O | – | – | 551 | 11.7 | 0.398 | 0.034 | 1.13 | – | – | – | – | 0.00205 |
| CN1CC[C@]23c4c5ccc(O)c4O[C@H]2[C@@H](O)C=C[C@H]3[C@H]1C5 [MORPHINE] | – | – | – | – | – | – | – | – | – | 3.81 | 7.32 | – |
| N=C(N)NCCC[C@@H](NC(=O)[C@@H](N)Cc1ccc(O)cc1)C(=O)N[C@@H](Cc1ccccc1)C(=O)NCCC(N)=O | – | – | – | – | 116 | 5.31 | 482 | – | – | – | – | 0.172 |
| NC(=O)CCNC(=O)[C@H](Cc1ccccc1)NC(=O)[C@@H](CCCN=C(N)N)NC(=O)[C@@H](N)Cc1ccc(O)cc1 | > 1000 | 21.2 | 2800 | 21.8 | – | – | – | – | 26.8 | 0.628 | 0.514 | – |
| Cc1cccc(C)c1C[C@@H](NC(=O)[C@@H](CCCN=C(N)N)NC(=O)[C@@H](N)Cc1ccc(O)cc1)C(=O)NCCC(N)=O | – | – | > 45700 | 15.4 | 305 | 19.8 | > 2820 | – | – | – | – | 0.0618 |
| Cc1cccc(C)c1C[C@@H](N)C(=O)N[C@H](CCCNC(=N)N)C(=O)N[C@@H](Cc1ccccc1)C(=O)NCCC(N)=O | – | – | – | – | 1470 | 320 | > 2820 | – | – | – | – | 7.62 |
| NC(=O)CCNC(=O)[C@H](Cc1ccccc1)NC(=O)[C@@H](CCCN=C(N)N)NC(=O)[C@@H](N)Cc1ccccc1 | – | – | > 393 | 11.2 | 7140 | 633 | > 2820 | – | – | – | – | 7.17 |
| Cc1cccc(C)c1C[C@H](N)C(=O)N[C@H](CCCN=C(N)N)C(=O)N[C@@H](Cc1ccccc1)C(=O)NCCC(N)=O | > 1000 | 13.4 | 41300 | 19 | 188 | 9.88 | 2570 | – | 25.1 | 1.95 | 1.53 | 0.0623 |
| Cc1cccc(C)c1C[C@H](NC(=O)[C@@H](CCCN=C(N)N)NC(=O)[C@@H](N)Cc1c(C)cccc1C)C(=O)NCCC(N)=O | > 1000 | 10.2 | 78100 | 18.2 | 50.1 | 2.76 | 1690 | – | 21.3 | – | – | 0.0216 |
